For orientation: IC50 means the point on the concentration scale where inhibition reaches its midpoint.

The first assay relates to RS4; 11 with G101V mutation. In words: In vitro anti-proliferation assay (ATPlite luminescence) in BCL-2-dependent ALL cell line RS4;11 with G101V mutation. It is filed as cell-based. The conditions noted are these: Homo sapiens, RS4-11, 72 h; read-out: RS411-G101V IC50. A digest of the protocol: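 RS4;11 G101V cells at about 1×10^4 per well were exposed to a range of compound concentrations for about 72 h in medium with 10% FBS. Cellular ATP was measured by ATPlite luminescence after lysis, and IC50 was derived from the dose-response.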
Background: ATP-based viability assays read luminescence as a measure of living cells.
With `COc1cc2c(nc1N1CCOC[C@@H]1C)COC[C@@H]2N1CCN(C2CC3(CCN(c4ccc(C(=O)NS(=O)(=O)c5cc6c(c([N+](=O)[O-])c5)N[C@H](C5CCOCC5)CO6)c(N5c6cc7cc[nH]c7nc6O[C@H]6COCC[C@@H]65)c4)CC3)C2)[C@H](c2ccccc2OC(C)C)C1` [Example 233, 4-(2-((R)-2-(2-isopropoxyphenyl)-4-((R)-3-methoxy-2-((S)-3-methylmorpholino)-5,8-dihydro-6H-pyrano[3,4-b]pyridin-5-yl)piperazin-1-yl)-7-azaspiro[3.5]nonan-7-yl)-N-(((R)-5-nitro-3-(tetrahydro-2H-pyran-4-yl)-3,4-dihydro-2H-benzo[b][1,4]oxazin-7-yl)sulfonyl)-2-((5aS,9aR)-6,7,9,9a-tetrahydro-1H-pyrano[3,4-b]pyrrolo[3′,2′:5,6]pyrido[3,2-e][1,4]oxazin-5(5aH)-yl)benzamide], the IC50 is 4.64 nM. Consider `CC(C)Oc1ccccc1[C@@H]1CN([C@@H]2CCCOC2)CCN1C1CC2(CCN(c3ccc(C(=O)NS(=O)(=O)c4cc5c(c([N+](=O)[O-])c4)N[C@H](C4CCOCC4)CO5)c(N4c5cc6cc[nH]c6nc5O[C@H]5COCC[C@@H]54)c3)CC2)C1` [Example 174, 4-(2-((R)-2-(2-isopropoxyphenyl)-4-((R)-tetrahydro-2H-pyran-3-yl)piperazin-1-yl)-7-azaspiro[3.5]nonan-7-yl)-N-(((R)-5-nitro-3-(tetrahydro-2H-pyran-4-yl)-3,4-dihydro-2H-benzo[b][1,4]oxazin-7-yl)sulfonyl)-2-((5aS,9aR)-6,7,9,9a-tetrahydro-1H-pyrano[3,4-b]pyrrolo[3′,2′:5,6]pyrido[3,2-e][1,4]oxazin-5(5aH)-yl)benzamide], for which the IC50 was found to be 46.5 nM.

Take `CC(C)Oc1ccccc1[C@@H]1CN(S(=O)(=O)c2ccc(F)c(F)c2)CCN1C1CC2(CCN(c3ccc(C(=O)NS(=O)(=O)c4cc5c(c([N+](=O)[O-])c4)N[C@H](C4CCOCC4)CO5)c(N4c5cc6cc[nH]c6nc5O[C@H]5COCC[C@@H]54)c3)CC2)C1` [Example 245, 4-(2-((R)-4-((3,4-difluorophenyl)sulfonyl)-2-(2-isopropoxyphenyl)piperazin-1-yl)-7-azaspiro[3.5]nonan-7-yl)-N-(((R)-5-nitro-3-(tetrahydro-2H-pyran-4-yl)-3,4-dihydro-2H-benzo[b][1,4]oxazin-7-yl)sulfonyl)-2-((5aS,9aR)-6,7,9,9a-tetrahydro-1H-pyrano[3,4-b]pyrrolo[3′,2′:5,6]pyrido[3,2-e][1,4]oxazin-5(5aH)-yl)benzamide]: the IC50 was found to be 290 nM.

The same assay, now with this note: cellular anti-proliferative IC50, about 72 hours, medium with 10% FBS, ATPlite; read-out: RS411-G101V IC50.
With `COc1cc(CN2CCN(C3CC4(CCN(c5ccc(C(=O)NS(=O)(=O)c6ccc(NCC7CCC(C)(O)CC7)c([N+](=O)[O-])c6)c(N6c7cc8cc[nH]c8nc7O[C@H]7COCC[C@@H]76)c5)CC4)C3)[C@@H](c3ccccc3OC(C)C)C2)cnc1N1CCOCC1` (stereo partly drawn) [Example 101, N-((4-((((1r,4r)-4-hydroxy-4-methylcyclohexyl)methyl)amino)-3-nitrophenyl)sulfonyl)-4-(2-((S)-2-(2-isopropoxyphenyl)-4-((5-methoxy-6-morpholinopyridin-3-yl)methyl)piperazin-1-yl)-7-azaspiro[3.5]nonan-7-yl)-2-((5aS,9aR)-6,7,9,9a-tetrahydro-1H-pyrano[3,4-b]pyrrolo[3′,2′:5,6]pyrido[3,2-e][1,4]oxazin-5(5aH)-yl)benzamide], the IC50 came out at 12.9 nM.

`CC(C)Oc1ccccc1[C@H]1CN(CC2CCOCC2)CCN1C1CC2(CCN(c3ccc(C(=O)NS(=O)(=O)c4ccc(NCC5CCC(C)(O)CC5)c([N+](=O)[O-])c4)c(N4c5cc6cc[nH]c6nc5O[C@H]5COCC[C@@H]54)c3)CC2)C1` (stereo partly drawn) [Example 159, 2-[(3R,8S)-2,5-dioxa-9,15,17-triazatetracyclo[8.7.0.0^{3,8}.0^{12,16}]heptadeca-1(10),11,13,16-tetraen-9-yl]-4-{2-[(2S)-2-(2-isopropoxyphenyl)-4-(oxan-4-ylmethyl)piperazin-1-yl]-7-azaspiro[3.5]nonan-7-yl}-N-[3-nitro-4-({[(1r,4r)-4-hydroxy-4-methylcyclohexyl]methyl}amino)benzenesulfonyl]benzamide]: the IC50 stood at 7.5 nM.

As to `COc1cc(CN2CCN([C@@H]3CC4(CCN(c5ccc(C(=O)NS(=O)(=O)c6ccc(NCC7CCC(C)(O)CC7)c([N+](=O)[O-])c6)c(N6c7cc8cc[nH]c8nc7O[C@H]7COCC[C@@H]76)c5)CC4)[C@@H]3C)[C@H](c3ccccc3C)C2)cnc1N1CCOCC1` (stereo partly drawn) [Example 140, 2-[(3R,8S)-2,5-dioxa-9,15,17-triazatetracyclo[8.7.0.0^{3,8}.0^{12,16}]heptadeca-1(10),11,13,16-tetraen-9-yl]-4-[(1S,2R)-2-[(2R)-4-{[5-methoxy-6-(morpholin-4-yl)pyridin-3-yl]methyl}-2-(2-methylphenyl)piperazin-1-yl]-1-methyl-7-azaspiro[3.5]nonan-7-yl]-N-[3-nitro-4-({[(1r,4r)-4-hydroxy-4-methylcyclohexyl]methyl}amino)benzenesulfonyl]benzamide], the IC50 came out at 6.4 nM. Still for that read-out and setting: as for `COc1ncc(CN2CCN(C3CC4(CCN(c5ccc(C(=O)NS(=O)(=O)c6ccc(NCC7CCC(C)(O)CC7)c([N+](=O)[O-])c6)c(N6c7cc8cc[nH]c8nc7O[C@H]7COCC[C@@H]76)c5)CC4)C3)[C@@H](c3ccccc3OC(C)C)C2)cc1C1CC1` (stereo partly drawn) [Example 136, 4-{2-[(2S)-4-[(5-cyclopropyl-6-methoxypyridin-3-yl)methyl]-2-(2-isopropoxyphenyl)piperazin-1-yl]-7-azaspiro[3.5]nonan-7-yl}-2-[(3R,8S)-2,5-dioxa-9,15,17-triazatetracyclo[8.7.0.0^{3,8}.0^{12,16}]heptadeca-1(10),11,13,16-tetraen-9-yl]-N-[3-nitro-4-({[(1r,4r)-4-hydroxy-4-methylcyclohexyl]methyl}amino)benzenesulfonyl]benzamide], the figure is 35.6 nM; as for `Cc1cc2c(CN3CCN(C4CC5(CCN(c6ccc(C(=O)NS(=O)(=O)c7ccc(NCC8CCC(C)(O)CC8)c([N+](=O)[O-])c7)c(N7c8cc9cc[nH]c9nc8O[C@H]8COCC[C@@H]87)c6)CC5)C4)[C@H](c4ccccc4C)C3)cnc(N3CCOCC3)c2o1` (stereo partly drawn) [Example 146, 2-[(3R,8S)-2,5-dioxa-9,15,17-triazatetracyclo[8.7.0.0^{3,8}.0^{12,16}]heptadeca-1(10),11,13,16-tetraen-9-yl]-4-{2-[(2R)-4-{[2-methyl-7-(morpholin-4-yl)furo[2,3-c]pyridin-4-yl]methyl}-2-(2-methylphenyl)piperazin-1-yl]-7-azaspiro[3.5]nonan-7-yl}-N-[3-nitro-4-({[(1r,4r)-4-hydroxy-4-methylcyclohexyl]methyl}amino)benzenesulfonyl]benzamide], 8.2 nM; as for `COc1cc(CN2CCN(C3CC4(CCN(c5ccc(C(=O)NS(=O)(=O)c6ccc(NCC7CCOCC7)c([N+](=O)[O-])c6)c(N6c7cc8cc[nH]c8nc7O[C@H]7COCC[C@@H]76)c5)CC4)C3)[C@@H](c3ccccc3OC(C)C)C2)cnc1N1CCOCC1` [Example 132, 2-[(3R,8S)-2,5-dioxa-9,15,17-triazatetracyclo[8.7.0.0^{3,8}.0^{12,16}]heptadeca-1(10),11,13,16-tetraen-9-yl]-4-{2-[(2S)-2-(2-isopropoxyphenyl)-4-{[5-methoxy-6-(morpholin-4-yl)pyridin-3-yl]methyl}piperazin-1-yl]-7-azaspiro[3.5]nonan-7-yl}-N-{3-nitro-4-[(oxan-4-ylmethyl)amino]benzenesulfonyl}benzamide], 32.2 nM. Same read-out and setting: as for `CC(C)Oc1ccccc1[C@@H]1CN(c2ccccc2)CCN1C1CC2(CCN(c3ccc(C(=O)NS(=O)(=O)c4cc5c(c([N+](=O)[O-])c4)N[C@H](C4CCOCC4)CO5)c(N4c5cc6cc[nH]c6nc5O[C@H]5COCC[C@@H]54)c3)CC2)C1` [Example 222, 2-[(3R,8S)-2,5-dioxa-9,15,17-triazatetracyclo[8.7.0.0^{3,8}.0^{12,16}]heptadeca-1(10),11,13,16-tetraen-9-yl]-4-{2-[(2R)-2-(2-isopropoxyphenyl)-4-phenylpiperazin-1-yl]-7-azaspiro[3.5]nonan-7-yl}-N-[(3R)-5-nitro-3-(oxan-4-yl)-3,4-dihydro-2H-1,4-benzoxazin-7-ylsulfonyl]benzamide], the figure is 240 nM.

With `Cc1ccccc1[C@@H]1CN(Cc2ccc(F)c(F)c2)CCN1C1CC2(CCN(c3ccc(C(=O)NS(=O)(=O)c4cc5c(c([N+](=O)[O-])c4)N[C@@H](C4CCOCC4)CO5)c(N4c5cc6cc[nH]c6nc5O[C@H]5COCC[C@@H]54)c3)CC2)C1` [Example 167, 4-{2-[(2R)-4-[(3,4-difluorophenyl)methyl]-2-(2-methylphenyl)piperazin-1-yl]-7-azaspiro[3.5]nonan-7-yl}-2-[(3R,8S)-2,5-dioxa-9,15,17-triazatetracyclo[8.7.0.0^{3,8}.0^{12,16}]heptadeca-1(10),11,13,16-tetraen-9-yl]-N-[(3S)-5-nitro-3-(oxan-4-yl)-3,4-dihydro-2H-1,4-benzoxazin-7-ylsulfonyl]benzamide], the IC50 worked out at 75.8 nM.

With `CC(C)Oc1ccccc1[C@@H]1CN([C@@H]2CCOc3c2ccc(F)c3F)CCN1C1CC2(CCN(c3ccc(C(=O)NS(=O)(=O)c4cc5c(c([N+](=O)[O-])c4)N[C@H](C4CCOCC4)CO5)c(N4c5cc6cc[nH]c6nc5O[C@H]5COCC[C@@H]54)c3)CC2)C1` [Example 212, 4-{2-[(2R)-4-[(4R)-7,8-difluoro-3,4-dihydro-2H-1-benzopyran-4-yl]-2-(2-isopropoxyphenyl)piperazin-1-yl]-7-azaspiro[3.5]nonan-7-yl}-2-[(3R,8S)-2,5-dioxa-9,15,17-triazatetracyclo[8.7.0.0^{3,8}.0^{12,16}]heptadeca-1(10),11,13,16-tetraen-9-yl]-N-[(3R)-5-nitro-3-(oxan-4-yl)-3,4-dihydro-2H-1,4-benzoxazin-7-ylsulfonyl]benzamide], the IC50 was determined as 33.5 nM.

For the origin of these results see patent US20250114374A1, “BCL-2 INHIBITORS” (Newave Pharmaceutical Inc., priority 2021, published 2025).
